We go through ten compounds from ChEMBL document CHEMBL4665827, “Discovery of Small-Molecule Inhibitors of Receptor Activator of Nuclear Factor-κB Ligand with a Superior Therapeutic Index” (J Med Chem, 2020).

For orientation: inhibition means the relative decrease from the control value, in per cent. The term Kd denotes the equilibrium constant for the complex coming apart.

Data set [1] concerns the target T1, Tumor necrosis factor ligand superfamily member 11 (Homo sapiens) (UniProt O14788).
T1 sequence (whole entry): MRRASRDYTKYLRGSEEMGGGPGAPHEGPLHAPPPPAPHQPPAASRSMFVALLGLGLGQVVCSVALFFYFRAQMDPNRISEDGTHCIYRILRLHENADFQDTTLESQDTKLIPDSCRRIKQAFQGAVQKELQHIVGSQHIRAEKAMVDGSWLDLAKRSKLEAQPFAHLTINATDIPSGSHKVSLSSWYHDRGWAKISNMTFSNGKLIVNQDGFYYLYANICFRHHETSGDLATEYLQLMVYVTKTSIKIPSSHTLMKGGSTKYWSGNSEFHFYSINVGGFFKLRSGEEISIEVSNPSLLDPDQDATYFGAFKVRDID
The data set is described as follows: Inhibition of human RANKL-induced osteoclastogenesis in RANKL cultured mouse bone marrow cells assessed as reduction in RANKL/M-CSF-induced TRAP activity preincubated with RANKL for 1 hr followed by cell addition and subsequent media replenishment every 48 hrs for 4 days. The note with it: time 4.0 day. In kind it is cell-based.

For data set [2], the target named is T1, Tumor necrosis factor ligand superfamily member 11 (Homo sapiens). In words: Potency index, ratio of SPD-304 Kd to test compound Kd for binding affinity to GST-fused human RANKL extracellular domain (Lys159 to Asp317 residues) expressed in Escherichia coli BL21(DE3) pLysS by fluorescence spectrophotometric assay.
Data set [3] can be described thus: Cytotoxicity against mouse BMMC assessed as reduction in cell viability measured after 48 hrs by MTT assay. In kind it is cell-based. The note with it: mouse BMMC (bone marrow cells), read-out: LC50. In general terms: Tetrazolium assays rely on reduction of a dye to a coloured formazan, in cell work by metabolically active cells.
Data set [4] in a line: Therapeutic index, ratio of LC50 for mouse bone marrow cells to IC50 for Inhibition of human RANKL-induced osteoclastogenesis in RANKL cultured mouse bone marrow cells. The following applies: read-out: Ratio LC50/IC50. Type of data set: toxicity.
In data set [5] the target is T1, Tumor necrosis factor ligand superfamily member 11 (Homo sapiens). The data set is described as follows: Inhibition of human RANKL-induced osteoclastogenesis in RANKL cultured mouse bone marrow cells assessed as reduction in RANKL/M-CSF-induced TRAP activity at 5 uM preincubated with RANKL for 1 hr followed by cell addition and subsequent media replenishment every 48 hrs for 4 days. In kind it is cell-based. The note with it: time 4.0 day.

Data set [6] can be described thus: Effect on osteoblast differentiation in mouse MC3T3-E1 cells assessed as change in ALP activity at 2 to 10 uM with media replenishment every 3 days for 14 days. In kind it is ADME, cell-based. The following applies: mc3t3-e1, 336 h, dose 2-10 µM, time 14 day.
Data set [7] addresses T1, Tumor necrosis factor ligand superfamily member 11 (Homo sapiens). The data set is described as follows: Inhibition of human RANKL-induced osteoclastogenesis in RANKL cultured mouse bone marrow cells assessed as reduction in phalloidin-labeled actin ring formation at 5 to 10 uM preincubated with RANKL for 1 hr followed by cell addition and subsequent media replenishment every 48 hrs for 4 days by Alexa Fluor 488-conjugated phalloidin/DAPI-staining based fluorescence microscopic analysis. The following applies: dose microM 5-10, time 4.0 day.

Data set [8] deals with T2, Tumor necrosis factor ligand superfamily member 11 (Homo sapiens, UniProt O14788).
T2 sequence (O14788 whole entry): T1 sequence (whole entry)
The data set is described as follows: Binding affinity to GST-fused human RANKL extracellular domain (Lys159 to Asp317 residues) expressed in Escherichia coli BL21(DE3) pLysS by fluorescence spectrophotometric assay. The note with it: read-out: Kd.

Data set [9] deals with T1, Tumor necrosis factor ligand superfamily member 11 (Homo sapiens). In words: Inhibition of human soluble RANKL trimerization assessed as increase in RANKL monomer level preincubated for 1 hr followed by DSS addition and measured after 1 hr by SDS-PAGE analysis. The note with it: time 2.0 hrs.
Data set [10] shares this target. In words: Inhibition of human RANKL-induced osteoclastogenesis in RANKL cultured mouse bone marrow cells assessed as reduction in RANKL/M-CSF-induced TRAP activity at 5 to 10 uM preincubated with RANKL for 1 hr followed by cell addition and subsequent media replenishment every 48 hrs for 4 days. The following applies: dose microM 5-10, time 4.0 day. Type of data set: cell-based.

The target is the same in data set [11]. The data set is described as follows: Inhibition of RANKL (unknown origin) in RANKL cultured mouse RAW264.7 cells assessed as reduction in RANKL/RANK-interaction mediated cFOS expression by measuring cFOS protein expression at 2 uM preincubated for 1 hr followed by cell culture addition and measured after 2 days by Western blot analysis relative to positive control (reference value: 1). In kind it is cell-based. The note with it: time 49.0 hrs. (Immunoblotting shows a protein as a band on a membrane.)

Data set [12] shares this target. In words: Inhibition of RANKL (unknown origin) in RANKL cultured mouse RAW264.7 cells assessed as reduction in RANKL/RANK-interaction mediated cFOS expression by measuring cFOS protein expression at 5 uM preincubated for 1 hr followed by cell culture addition and measured after 2 days by Western blot analysis relative to positive control (reference value: 1). The note with it: time 49.0 hrs. In kind it is cell-based.

Data set [13] shares this target. The data set is described as follows: Inhibition of RANKL (unknown origin) in RANKL cultured mouse RAW264.7 cells assessed as reduction in RANKL/RANK-interaction mediated NFATc1 expression by measuring NFATc1 protein expression at 2 uM preincubated for 1 hr followed by cell culture addition and measured after 2 days by Western blot analysis relative to positive control (reference value: 1). Type of data set: cell-based. The following applies: time 49.0 hrs.

The target is the same in data set [14]. The data set is described as follows: Inhibition of RANKL (unknown origin) in RANKL cultured mouse RAW264.7 cells assessed as reduction in RANKL/RANK-interaction mediated NFATc1 expression by measuring NFATc1 protein expression at 10 uM preincubated for 1 hr followed by cell culture addition and measured after 2 days by Western blot analysis relative to positive control (reference value: 1). In kind it is cell-based. The following applies: time 49.0 hrs.

Data set [15] shares this target. The data set is described as follows: Inhibition of human RANKL-induced osteoclastogenesis in RANKL cultured mouse bone marrow cells assessed as reduction in phalloidin-labeled actin ring formation preincubated with RANKL for 1 hr followed by cell addition and subsequent media replenishment every 48 hrs for 4 days by Alexa Fluor 488-conjugated phalloidin/DAPI-staining based fluorescence microscopic analysis.

Data set [16] has the same target. In words: Inhibition of RANKL (unknown origin) in RANKL cultured mouse RAW264.7 cells assessed as reduction in RANKL/RANK-interaction mediated NFATc1 expression by measuring NFATc1 protein expression at 5 uM preincubated for 1 hr followed by cell culture addition and measured after 2 days by Western blot analysis relative to positive control (reference value: 1). In kind it is cell-based. The following applies: time 49.0 hrs.

For data set [17] the target is unchanged. The data set is described as follows: Inhibition of RANKL (unknown origin) in RANKL cultured mouse RAW264.7 cells assessed as reduction in RANKL/RANK-interaction mediated cFOS expression by measuring cFOS protein expression at 10 uM preincubated for 1 hr followed by cell culture addition and measured after 2 days by Western blot analysis relative to positive control (reference value: 1). Type of data set: cell-based. The following applies: time 49.0 hrs.

For data set [18] the target is unchanged. The data set is described as follows: Inhibition of human soluble RANKL trimerization assessed as increase in RANKL monomer level at 1:3 ratio of DSS to RANKL preincubated for 1 hr followed by DSS addition and measured after 1 hr by SDS-PAGE analysis. The note with it: time 2.0 hrs.
A further data set deals with BMMC. The data set is described as follows: Cytotoxicity against mouse BMMC assessed as reduction in cell viability at 5 uM measured after 48 hrs by MTT assay. Type of data set: cell-based.
In data set [19] the target is T1, Tumor necrosis factor ligand superfamily member 11 (Homo sapiens). The data set is described as follows: Inhibition of RANKL (unknown origin) in RANKL cultured mouse RAW264.7 cells assessed as reduction in RANKL/RANK-interaction mediated NFATc1 expression at 2 to 10 uM preincubated for 1 hr followed by cell culture addition and measured after 2 days by Western blot analysis. The following applies: dose microM 2-10, time 49.0 hrs. In kind it is cell-based.

For data set [20] the target is unchanged. The data set is described as follows: Inhibition of RANKL (unknown origin) in RANKL cultured mouse RAW264.7 cells assessed as reduction in RANKL/RANK-interaction mediated cFOS expression at 2 to 10 uM preincubated for 1 hr followed by cell culture addition and measured after 2 days by Western blot analysis. In kind it is cell-based. The note with it: dose microM 2-10, time 49.0 hrs.

Data set [21] shares this target. In words: Inhibition of human soluble RANKL trimerization assessed as increase in RANKL monomer level at 1:3 to 1:10 ratio of DSS to RANKL preincubated for 1 hr followed by DSS addition and measured after 1 hr by SDS-PAGE analysis. The following applies: time 2.0 hrs.

SMILES strings stand for the structures. The source made the active and inactive calls. The calls are words filed in the database; no cut-off is given here. Some results are limits rather than exact numbers.

As to `CN(CCN(C)Cc1cn(S(=O)(=O)c2ccccc2)c2ccccc12)Cc1coc2ccccc2c1=O`, the inhibition result in data set [1] was “Dose-dependent effect”; in [5] it was 100%; in data set [9], “Dose-dependent effect”. Further, the Ratio in data set [2] stood at 2.7. In [3], the CC50 at 48 h is 58.5 µM. Besides, the selectivity ratio in data set [4] stood at 23.4. The Activity result in data set [6] is “Non-Toxic”. In addition, the inhibition entry in data set [7] and in [10] was “Active” throughout. In addition, the Kd in data set [8] turned out to be 5.24 µM.

Turning to `CN(CCN(C)C(=O)c1cn(-c2cccc([N+](=O)[O-])c2)c2ccccc12)C(=O)c1coc2ccccc2c1=O`, the values for the inhibition entry in data set [1], in [5] and in [15] were “Dose-dependent effect”, 100% and “Dose-dependent effect”, respectively. In addition, the CC50 at 48 h in [3] came to 44.2 µM. For the same compound, the selectivity ratio in [4] was found to be 27.8. The fold change (FC) in [11] is 0.58; in data set [12] it was 0.56; in data set [13], 0.66; in data set [14] it was 0.39; in [16], 0.52; in data set [17], 0.48. For the same compound, in [6], the Activity entry is reported as “Non-Toxic”. For the same compound, the Kd in [8] turned out to be 2.18 µM. The inhibition result in data set [18] is “Active”.

In the case of `Cc1cc2occ(CN(C)CCN(C)Cc3cn(S(=O)(=O)c4ccccc4)c4ccccc34)c(=O)c2cc1C`, the Activity entry in the data set on BMMC is “Toxic”. Also, the Kd in data set [8] was found to be 8.71 µM.

Take `CN(CCN(C)C(=O)c1cn(S(=O)(=O)c2cccc([N+](=O)[O-])c2)c2ccccc12)C(=O)c1coc2ccccc2c1=O`: the inhibition entry in [1] is “Dose-dependent effect”; in data set [5], 100%. Besides, the CC50 at 48 h in data set [3] was 32.2 µM. Besides, in [4], the selectivity ratio turned out to be 6.3. Also, the Kd in [8] worked out at 4.6 µM.

In the case of `CN(CCN(C)C(=O)c1cn(S(=O)(=O)c2ccccc2)c2ccccc12)C(=O)c1coc2ccccc2c1=O`, the inhibition result is “Dose-dependent effect” in data set [1] and 100% in data set [5]. The Ratio in data set [2] was found to be 3. In addition, the CC50 at 48 h in data set [3] is 62.3 µM. For the same compound, the selectivity ratio in data set [4] was found to be 21.8. Besides, in data set [6], the Activity result is “Non-Toxic”. Besides, the inhibition result in data set [19] and in [20] was “Active” in each case. Moreover, in data set [8], the Kd amounted to 4.6 µM.

Take `CN(CCN(C)S(=O)(=O)c1ccc(C#N)cc1)C(=O)c1cn(S(=O)(=O)c2cccc([N+](=O)[O-])c2)c2ccccc12`: the CC50 at 48 h in [3] is above 500 µM. The selectivity ratio in data set [4] was above 250.

As for `O=C(c1cn(S(=O)(=O)c2cccc([N+](=O)[O-])c2)c2ccccc12)N1CCN(S(=O)(=O)c2cccc([N+](=O)[O-])c2)CC1`, the CC50 at 48 h in data set [3] turned out to be 118 µM. Besides, in [4], the selectivity ratio came to 18.5.

With `O=C(c1cn(S(=O)(=O)c2cccc([N+](=O)[O-])c2)c2ccccc12)N1CCN(S(=O)(=O)c2ccccc2)CC1`, the CC50 at 48 h in [3] was 123 µM. For the same compound, in data set [4], the selectivity ratio was determined as 84.8. Besides, the fold change (FC) turned out to be 0.91 in data set [11]; 0.63 in data set [12]; 0.82 in data set [13]; 0.34 in data set [14]; 0.57 in [16]; 0.56 in data set [17].

In the case of `Cc1cc2occ(CN(C)CCN(C)Cc3cn(-c4cccc(C(F)(F)F)c4)c4ccccc34)c(=O)c2cc1C`, in [1], the inhibition entry is “Dose-dependent effect”. Further, the CC50 at 48 h in [3] is 3.2 µM. Also, the inhibition result in [21] is “Active”. For the same compound, the selectivity ratio in data set [4] came out at 3.2. Also, the Activity entry with BMMC is reported as “Toxic”.

Turning to `Cc1ccc2occ(CN(C)CCN(C)Cc3cn(S(=O)(=O)c4ccccc4)c4ccccc34)c(=O)c2c1`, the Activity entry with BMMC was “Toxic”. The Kd in data set [8] is 6.62 µM.
